This passage reports IC50 results from BindingDB's records for doi:10.1016/j.bmcl.2010.05.078 (University of Arizona, 2010).

Structures are written as SMILES.

Assay [1] deals with Melanocortin receptor 4 (Homo sapiens, UniProt P32245). Description: Displacement of Eu-NDP-alphaMSH from human MC4 receptor expressed in human HEK293 cells.
Assay [2] is described as follows: Agonist activity at mu opioid receptor in guinea pig ileum assessed as inhibition of electrically-stimulated muscle contraction.

Melanocortin receptor 4, sequence (P32245 whole entry): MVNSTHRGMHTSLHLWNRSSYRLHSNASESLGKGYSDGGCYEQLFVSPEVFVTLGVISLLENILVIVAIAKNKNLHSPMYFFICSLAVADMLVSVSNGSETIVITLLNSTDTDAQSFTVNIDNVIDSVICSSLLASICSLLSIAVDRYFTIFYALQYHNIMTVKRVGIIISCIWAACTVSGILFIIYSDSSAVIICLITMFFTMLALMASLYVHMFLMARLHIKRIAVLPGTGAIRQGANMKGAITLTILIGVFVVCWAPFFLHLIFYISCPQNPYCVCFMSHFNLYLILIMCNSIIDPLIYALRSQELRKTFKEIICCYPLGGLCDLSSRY

Broadly, the IC50 is the midpoint of a concentration-inhibition curve. With `CCCC[C@H](NC(=O)[C@H](Cc1c[nH]c2ccccc12)NC(=O)[C@H](CCCN=C(N)N)NC(=O)[C@@H](Cc1ccc2ccccc2c1)NC(=O)[C@H](Cc1cnc[nH]1)NC(=O)[C@H](Cc1ccccc1)NC(=O)[C@@H](C)NC(=O)[C@@H](N)Cc1ccc(O)cc1)C(=O)N[C@@H](CC(=O)O)C(=O)N[C@@H](Cc1ccccc1)C(N)=O` [(3S,6S,9S,12S,15R,18S,21S,24R,27S)-18-((1H-imidazol-5-yl)methyl)-9-((1H-indol-3-yl)methyl)-27-amino-3-((S)-1-amino-1-oxo-3-phenylpropan-2-ylcarbamoyl)-21-benzyl-6-butyl-12-(3-guanidinopropyl)-28-(4-hydroxyphenyl)-24-methyl-15-(naphthalen-2-ylmethyl)-5,8,11,14,17,20,23,26-octaoxo-4,7,10,13,16,19,22,25-octaazaoctacosan-1-oic acid], the IC50 in assay [1] is 631 nM.

Regarding `Cc1cc(O)cc(C)c1C[C@H](N)C(=O)N1CC(=O)N[C@@H](Cc2cnc[nH]2)C(=O)N[C@H](Cc2ccccc2)C(=O)N[C@@H](CCCN=C(N)N)C(=O)N[C@@H](Cc2c[nH]c3ccccc23)C(=O)N[C@H](C(=O)N[C@@H](CC(=O)O)C(=O)N[C@@H](Cc2ccccc2)C(N)=O)CSSC[C@@H](N)C1=O` [(S)-3-((4R,7S,10S,13R,16S,22S)-16-((1H-imidazol-5-yl)methyl)-7-((1H-indol-3-yl)methyl)-22-amino-20-((S)-2-amino-3-(4-hydroxy-2,6-dimethylphenyl)propanoyl)-13-benzyl-10-(3-guanidinopropyl)-6,9,12,15,18,21-hexaoxo-1,2-dithia-5,8,11,14,17,20-hexaazacyclotricosane-4-carboxamido)-4-((S)-1-amino-1-oxo-3-phenylpropan-2-ylamino)-4-oxobutanoic acid], in assay [2], the IC50 was found to be 190 nM.
